pIC50: −log10 of the molar value. Active and inactive are the calls of the source. No cut-off for these calls is given here.
Legend:
[1] = Metabolic stability in Sprague-Dawley rat liver microsomes assessed as compound remaining at 10 uM preincubated for 5 mins followed by NADPH addition and measured upto 60 mins by HPLC analysis; format: ADME, Microsome; settings: read-out: Stability
NCI-H2228 [2] = assay: Induction of apoptosis in EML4-ALK-positive human NCI-H2228 cells assessed as apoptotic rate at 100 nM measured after 48 hrs by annexin V-FITC/propidium iodide staining based flow cytometry (reference value: 6.6%); format: functional
NCI-H2228 [3] = assay: Antiproliferative activity against EML4-ALK-positive human NCI-H2228 cells incubated for 3 days at 25 to 100 nM and assessed as decrease in number of colonies by colony formation assay; format: functional, cell-based; settings: dose 25-100 nM, time 3.0 day
NCI-H1581 = assay: Antiproliferative activity against human NCI-H1581 cells incubated for 72 hrs and measured by CCK-8 assay; format: functional, cell-based; settings: NCI-H1581, 72 h
[4] = Intrinsic clearance in Sprague-Dawley rat liver microsomes at 10 uM preincubated for 5 mins followed by NADPH addition and measured upto 60 mins by HPLC analysis; format: ADME, Microsome; settings: read-out: CLH
NCI-H2228 [5] = assay: Cell cycle arrest in EML4-ALK-positive human NCI-H2228 cells assessed as cells accumulation at S phase at 25 nM (reference value: 35.48%); format: functional
[6] = molecular target: Epidermal growth factor receptor (Homo sapiens, UniProt P00533); assay: Inhibition of EGFR (unknown origin) incubated for 1 hr and measured by mobility shift assay
Epidermal growth factor receptor, sequence (P00533 whole entry): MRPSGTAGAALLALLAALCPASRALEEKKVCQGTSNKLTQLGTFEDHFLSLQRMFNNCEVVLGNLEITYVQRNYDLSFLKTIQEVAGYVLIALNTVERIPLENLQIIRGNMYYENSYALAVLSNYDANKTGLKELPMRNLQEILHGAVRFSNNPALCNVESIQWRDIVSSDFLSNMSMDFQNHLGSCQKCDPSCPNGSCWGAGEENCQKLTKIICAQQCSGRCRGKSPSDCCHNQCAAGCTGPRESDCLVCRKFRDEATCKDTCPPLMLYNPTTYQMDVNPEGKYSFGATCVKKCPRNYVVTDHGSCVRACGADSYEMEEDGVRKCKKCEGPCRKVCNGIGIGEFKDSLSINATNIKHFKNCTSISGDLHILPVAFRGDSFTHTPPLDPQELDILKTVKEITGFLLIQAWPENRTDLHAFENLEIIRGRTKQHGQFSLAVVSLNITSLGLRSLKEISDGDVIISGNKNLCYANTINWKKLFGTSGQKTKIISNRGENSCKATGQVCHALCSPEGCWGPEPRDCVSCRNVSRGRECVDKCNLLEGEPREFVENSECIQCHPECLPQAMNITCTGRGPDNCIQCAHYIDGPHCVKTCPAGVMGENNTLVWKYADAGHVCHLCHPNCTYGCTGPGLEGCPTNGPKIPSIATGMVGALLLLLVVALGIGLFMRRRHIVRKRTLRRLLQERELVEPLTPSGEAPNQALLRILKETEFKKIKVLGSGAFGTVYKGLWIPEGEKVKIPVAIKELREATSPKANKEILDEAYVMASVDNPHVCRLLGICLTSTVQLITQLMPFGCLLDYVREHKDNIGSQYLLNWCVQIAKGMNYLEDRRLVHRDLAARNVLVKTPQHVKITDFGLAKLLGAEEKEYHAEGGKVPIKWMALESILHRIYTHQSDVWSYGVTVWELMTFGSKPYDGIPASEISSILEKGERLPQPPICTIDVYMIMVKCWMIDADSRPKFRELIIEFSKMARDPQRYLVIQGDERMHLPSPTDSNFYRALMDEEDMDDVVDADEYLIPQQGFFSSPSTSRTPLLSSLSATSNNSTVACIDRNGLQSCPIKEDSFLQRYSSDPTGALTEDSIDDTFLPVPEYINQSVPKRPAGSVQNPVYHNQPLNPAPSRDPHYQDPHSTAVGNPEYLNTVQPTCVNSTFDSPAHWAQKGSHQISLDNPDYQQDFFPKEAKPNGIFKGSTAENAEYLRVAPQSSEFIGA

NCI-H2228 [7] = assay: Induction of apoptosis in EML4-ALK-positive human NCI-H2228 cells assessed as apoptotic rate at 200 nM measured after 48 hrs by annexin V-FITC/propidium iodide staining based flow cytometry (reference value: 6.6%); format: functional
NCI-H2228 [8] = assay: Inhibition of cell migration in EML4-ALK-positive human NCI-H2228 cells assessed as relative migration rate at 5 nM measured after 48 hrs by cell scratch assay (reference value: 35.99 %); format: functional; parameters: scale not given: the % may be the effect or the level left
[9] = Toxicity in female BALB/c nude mouse xenografted with EML4-ALK-positive human NCI-H2228 cells assessed as body weight loss at 25 to 50 mg/kg, IG administered every 2 days for 7 times; format: organism-based; settings: in vivo, po, 48 h, dose 25-50 mg/kg, time 2 day
PC-3 = assay: Antiproliferative activity against human PC-3 cells incubated for 72 hrs and measured by CCK-8 assay; format: functional, cell-based; settings: PC-3, 72 h
[10] = Intrinsic clearance in Sprague-Dawley rat liver at 10 uM preincubated for 5 mins followed by NADPH addition and measured upto 60 mins by HPLC analysis; format: ADME, tissue-based; settings: read-out: CLH
NCI-H2228 [11] = assay: Cell cycle arrest in EML4-ALK-positive human NCI-H2228 cells assessed as cells accumulation at G0/G1 phase at 100 nM (reference value: 53.24%); format: functional
NCI-H2228 [12] = assay: Cell cycle arrest in EML4-ALK-positive human NCI-H2228 cells assessed as cells accumulation at G0/G1 phase at 25 nM (reference value: 53.24%); format: functional
NCI-H2228 [13] = assay: Inhibition of cell migration in EML4-ALK-positive human NCI-H2228 cells assessed as relative migration rate at 10 nM measured after 48 hrs by cell scratch assay (reference value: 35.99 %); format: functional; parameters: scale not given: the % may be the effect or the level left
MCF7 = assay: Antiproliferative activity against human MCF7 cells incubated for 72 hrs and measured by CCK-8 assay; format: functional, cell-based; settings: MCF7, 72 h
HCT-116 = assay: Antiproliferative activity against human HCT-116 cells incubated for 72 hrs and measured by CCK-8 assay; format: functional, cell-based; settings: HCT-116, 72 h
[14] = Metabolic stability in Sprague-Dawley rat liver microsomes assessed as compound remaining at 10 uM preincubated for 5 mins and measured upto 60 mins by HPLC analysis; format: ADME, Microsome; settings: read-out: Stability
NCI-H460 = assay: Antiproliferative activity against human NCI-H460 cells incubated for 72 hrs and measured by CCK-8 assay; format: functional, cell-based; settings: NCI-H460, 72 h
NCI-H2228 [15] = assay: cells; settings: Homo sapiens, NCI-H2228, 72 h
Description: Antiproliferative activity against EML4-ALK-positive human NCI-H2228 cells incubated for 72 hrs and measured by CCK-8 assay

NCI-H2228 [16] = assay: Cell cycle arrest in EML4-ALK-positive human NCI-H2228 cells assessed as cells accumulation at G2/M phase at 25 nM (reference value: 11.28%); format: functional
NCI-H2228 [17] = assay: Cell cycle arrest in EML4-ALK-positive human NCI-H2228 cells assessed as cells accumulation at S phase at 50 nM (reference value: 35.48%); format: functional
[18] = molecular target: ALK tyrosine kinase receptor (Homo sapiens, UniProt Q9UM73, G1202R); assay: Inhibition of ALK G1202R mutant (unknown origin) incubated for 1 hr and measured by mobility shift assay
ALK tyrosine kinase receptor (Homo sapiens, UniProt Q9UM73, G1202R), sequence (Q9UM73 19-1620 G1202R limits assumed): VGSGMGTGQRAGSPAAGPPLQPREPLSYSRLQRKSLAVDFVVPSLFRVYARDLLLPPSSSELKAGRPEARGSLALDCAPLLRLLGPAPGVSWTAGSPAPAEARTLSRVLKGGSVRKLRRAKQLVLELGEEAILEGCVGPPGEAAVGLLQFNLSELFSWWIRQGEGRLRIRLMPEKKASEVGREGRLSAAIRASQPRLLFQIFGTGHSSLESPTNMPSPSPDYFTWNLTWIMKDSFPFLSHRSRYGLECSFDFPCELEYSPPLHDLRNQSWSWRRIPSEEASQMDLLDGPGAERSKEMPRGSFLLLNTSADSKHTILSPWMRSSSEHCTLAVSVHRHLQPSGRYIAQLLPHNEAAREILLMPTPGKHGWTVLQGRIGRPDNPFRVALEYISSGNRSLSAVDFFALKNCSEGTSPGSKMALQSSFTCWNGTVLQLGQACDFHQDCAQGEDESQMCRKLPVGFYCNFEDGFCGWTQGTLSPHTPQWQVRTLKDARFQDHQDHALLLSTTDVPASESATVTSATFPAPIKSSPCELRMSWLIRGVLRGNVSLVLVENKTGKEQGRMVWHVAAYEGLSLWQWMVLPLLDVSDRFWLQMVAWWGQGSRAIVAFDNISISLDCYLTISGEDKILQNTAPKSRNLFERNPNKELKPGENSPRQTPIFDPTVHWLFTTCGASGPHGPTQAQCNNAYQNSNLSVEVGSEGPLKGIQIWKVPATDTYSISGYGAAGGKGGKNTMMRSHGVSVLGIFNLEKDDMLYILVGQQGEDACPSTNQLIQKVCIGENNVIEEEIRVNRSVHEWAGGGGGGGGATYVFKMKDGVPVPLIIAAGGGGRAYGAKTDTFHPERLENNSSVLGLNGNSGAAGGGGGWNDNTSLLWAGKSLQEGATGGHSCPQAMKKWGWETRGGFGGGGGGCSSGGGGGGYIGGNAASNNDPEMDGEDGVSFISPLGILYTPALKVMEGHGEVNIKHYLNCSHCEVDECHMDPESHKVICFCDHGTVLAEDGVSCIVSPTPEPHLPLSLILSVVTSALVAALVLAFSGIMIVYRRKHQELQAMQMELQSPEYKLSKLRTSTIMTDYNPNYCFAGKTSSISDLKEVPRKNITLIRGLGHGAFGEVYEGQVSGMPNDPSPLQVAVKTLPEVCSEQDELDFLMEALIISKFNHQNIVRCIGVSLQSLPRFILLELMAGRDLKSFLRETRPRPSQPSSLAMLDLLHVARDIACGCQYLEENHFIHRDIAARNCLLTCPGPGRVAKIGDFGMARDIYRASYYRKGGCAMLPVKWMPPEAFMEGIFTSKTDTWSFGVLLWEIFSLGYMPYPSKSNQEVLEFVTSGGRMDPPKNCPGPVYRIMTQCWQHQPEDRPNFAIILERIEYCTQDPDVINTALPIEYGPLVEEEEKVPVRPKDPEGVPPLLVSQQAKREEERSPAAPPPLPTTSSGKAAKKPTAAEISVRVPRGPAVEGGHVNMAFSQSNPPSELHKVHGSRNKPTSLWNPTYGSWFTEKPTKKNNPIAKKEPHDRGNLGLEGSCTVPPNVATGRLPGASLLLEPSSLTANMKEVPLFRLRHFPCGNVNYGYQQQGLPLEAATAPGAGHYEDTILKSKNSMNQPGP

NCI-H2228 [19] = assay: Inhibition of cell migration in EML4-ALK-positive human NCI-H2228 cells assessed as relative migration rate at 10 nM measured after 24 hrs by cell scratch assay (reference value: 21.4 %); format: functional; parameters: scale not given: the % may be the effect or the level left
[20] = molecular target: ALK tyrosine kinase receptor (Homo sapiens, UniProt Q9UM73); assay: Inhibition of ALK (unknown origin) incubated for 1 hr and measured by mobility shift assay
ALK tyrosine kinase receptor (Homo sapiens, UniProt Q9UM73), sequence (Q9UM73 whole entry): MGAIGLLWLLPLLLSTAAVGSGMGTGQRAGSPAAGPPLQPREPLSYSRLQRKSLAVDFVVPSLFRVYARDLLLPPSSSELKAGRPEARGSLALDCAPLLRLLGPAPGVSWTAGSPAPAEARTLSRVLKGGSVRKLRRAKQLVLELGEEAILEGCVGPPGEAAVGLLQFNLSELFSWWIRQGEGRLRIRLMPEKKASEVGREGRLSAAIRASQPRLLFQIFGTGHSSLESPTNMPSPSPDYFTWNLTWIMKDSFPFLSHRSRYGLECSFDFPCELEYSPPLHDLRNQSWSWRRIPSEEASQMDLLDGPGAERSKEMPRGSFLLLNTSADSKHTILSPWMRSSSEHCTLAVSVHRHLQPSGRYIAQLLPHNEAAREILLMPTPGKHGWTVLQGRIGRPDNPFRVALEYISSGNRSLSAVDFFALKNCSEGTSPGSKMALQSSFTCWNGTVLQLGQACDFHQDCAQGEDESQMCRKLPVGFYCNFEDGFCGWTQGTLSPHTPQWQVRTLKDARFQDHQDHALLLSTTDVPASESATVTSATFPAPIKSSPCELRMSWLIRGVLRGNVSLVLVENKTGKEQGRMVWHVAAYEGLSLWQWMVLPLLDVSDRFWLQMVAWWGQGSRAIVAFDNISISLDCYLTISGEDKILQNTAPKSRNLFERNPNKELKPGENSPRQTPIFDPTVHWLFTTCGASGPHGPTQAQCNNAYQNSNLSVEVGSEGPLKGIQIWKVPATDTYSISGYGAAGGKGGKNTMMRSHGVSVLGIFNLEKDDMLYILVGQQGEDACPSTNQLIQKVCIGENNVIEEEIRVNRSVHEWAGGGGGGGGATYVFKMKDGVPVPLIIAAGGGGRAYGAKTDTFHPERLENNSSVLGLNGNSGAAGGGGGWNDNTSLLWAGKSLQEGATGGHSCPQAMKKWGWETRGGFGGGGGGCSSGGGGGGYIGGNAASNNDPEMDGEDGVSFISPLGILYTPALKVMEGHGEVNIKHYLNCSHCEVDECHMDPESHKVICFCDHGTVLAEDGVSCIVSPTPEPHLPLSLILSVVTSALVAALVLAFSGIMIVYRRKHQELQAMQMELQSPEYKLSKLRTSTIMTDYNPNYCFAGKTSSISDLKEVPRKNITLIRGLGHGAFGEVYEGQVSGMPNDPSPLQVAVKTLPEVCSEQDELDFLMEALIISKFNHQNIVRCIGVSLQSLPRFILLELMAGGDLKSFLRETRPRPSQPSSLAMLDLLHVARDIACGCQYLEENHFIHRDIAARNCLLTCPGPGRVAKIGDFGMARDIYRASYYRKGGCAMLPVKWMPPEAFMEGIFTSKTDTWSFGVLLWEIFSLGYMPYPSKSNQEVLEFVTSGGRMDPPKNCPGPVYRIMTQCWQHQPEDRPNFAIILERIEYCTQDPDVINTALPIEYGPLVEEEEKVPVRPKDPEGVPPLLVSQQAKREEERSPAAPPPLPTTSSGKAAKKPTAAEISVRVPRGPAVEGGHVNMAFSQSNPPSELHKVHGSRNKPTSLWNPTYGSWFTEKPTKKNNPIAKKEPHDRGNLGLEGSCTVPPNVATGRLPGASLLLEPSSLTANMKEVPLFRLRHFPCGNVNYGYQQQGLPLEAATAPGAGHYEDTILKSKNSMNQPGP

NCI-H2228 [21] = assay: Cell cycle arrest in EML4-ALK-positive human NCI-H2228 cells assessed as cells accumulation at S phase at 100 nM (reference value: 35.48%); format: functional
KARPAS-299 = assay: cells; settings: Homo sapiens, KARPAS-299, 72 h
Description: Antiproliferative activity against NPM-ALK-positive human KARPAS-299 cells incubated for 72 hrs and measured by CCK-8 assay

NCI-H2228 [22] = assay: Antitumor activity against EML4-ALK-positive human NCI-H2228 cells xenografted in female BALB/c nude mouse assessed as tumor growth inhibition at 50 mg/kg, IG administered every 2 days for 7 times; format: functional; settings: NCI-H2228, po, 48 h, time 2 day, read-out: TGI
A549 = assay: cells; settings: Homo sapiens, A549, 72 h
Description: Antiproliferative activity against EGFR-positive human A549 cells incubated for 72 hrs and measured by CCK-8 assay

[23] = Cytotoxicity against human HELF cells incubated for 72 hrs and measured by CCK-8 assay; format: toxicity, cell-based
[24] = Metabolic stability in Sprague-Dawley rat liver microsomes assessed as half life at 10 uM preincubated for 5 mins followed by NADPH addition and measured upto 60 mins by HPLC analysis; format: ADME, Microsome
NCI-H2228 [25] = assay: Induction of apoptosis in EML4-ALK-positive human NCI-H2228 cells assessed as increase in apoptotic cells at 100 to 200 nM measured after 48 hrs by AO/EB staining based inverted fluorescence microscopic analysis; format: functional, cell-based; settings: dose 100-200 nM, DDE = dose-dependent effect
NCI-H2228 [26] = assay: Induction of apoptosis in EML4-ALK-positive human NCI-H2228 cells assessed as increase in apoptotic cells at 100 to 200 nM measured after 48 hrs by Hoechst 33342 staining based assay; format: functional, cell-based; settings: dose 100-200 nM, DDE = dose-dependent effect
NCI-H3122 = assay: cells; settings: Homo sapiens, NCI-H3122, 72 h
Description: Antiproliferative activity against EML4-ALK-positive human NCI-H3122 cells incubated for 72 hrs and measured by CCK-8 assay

NCI-H2228 [27] = assay: Cell cycle arrest in EML4-ALK-positive human NCI-H2228 cells assessed as cells accumulation at G2/M phase at 100 nM (reference value: 11.28%); format: functional
[28] = molecular target: ALK tyrosine kinase receptor (Homo sapiens, UniProt Q9UM73, L1196M); assay: Inhibition of ALK L1196M mutant (unknown origin) incubated for 1 hr and measured by mobility shift assay
ALK tyrosine kinase receptor (Homo sapiens, UniProt Q9UM73, L1196M), sequence (Q9UM73 19-1620 L1196M limits assumed): as the sequence (Q9UM73 19-1620 G1202R limits assumed) above, with L1178M, R1184G counted along it

NCI-H2228 [29] = assay: Cell cycle arrest in EML4-ALK-positive human NCI-H2228 cells assessed as cells accumulation at G0/G1 phase at 50 nM (reference value: 53.24%); format: functional
NCI-H2228 [30] = assay: Cell cycle arrest in EML4-ALK-positive human NCI-H2228 cells assessed as cells accumulation at G2/M phase at 50 nM (reference value: 11.28%); format: functional
NCI-H2228 [31] = assay: Inhibition of cell migration in EML4-ALK-positive human NCI-H2228 cells assessed as relative migration rate at 5 nM measured after 24 hrs by cell scratch assay (reference value: 21.4 %); format: functional; parameters: scale not given: the % may be the effect or the level left

With `CC(C)S(=O)(=O)c1ccccc1Nc1nc(Nc2ccc3c(NC(=O)CN4CCCC4)n[nH]c3c2)ncc1Cl` the remaining at 1 h, 10 µM [1] was 7.5%, the Activity (NCI-H2228 [2]) was 18.83% and the Activity (NCI-H2228 [3]) was “Active”. The pIC50 (NCI-H1581) was 5.73, the microsomal CLint at 10 µM [4] was 84.9 µL/min/mg and the Activity (NCI-H2228 [5]) was 9.4%. It also gave a pIC50 [6] of under 6.00, an Activity (NCI-H2228 [7]) of 23.28% and an Activity (NCI-H2228 [8]) of 17.02%. The Activity [9] was “Non-Toxic”, the pIC50 (PC-3) was 5.91 and the CLint scaled at 10 µM [10] was 153 mL/min/kg. For the same compound, the Activity (NCI-H2228 [11]) was 26.77%, the Activity (NCI-H2228 [12]) was 45.1% and the Activity (NCI-H2228 [13]) was 5.01%. For the same compound, the pIC50 (MCF7) was 5.65, the pIC50 (HCT-116) was 5.81 and the remaining at 1 h, 10 µM [14] was 86.2%. The pIC50 (NCI-H460) was 5.09, the pIC50 (NCI-H2228 [15]) was 7.77 and the Activity (NCI-H2228 [16]) was 45.5%. The Activity (NCI-H2228 [17]) was 7.4%, the pIC50 [18] was 8.89 and the Activity (NCI-H2228 [19]) was 2.31%. For the same compound, the pIC50 [20] was 8.80, the Activity (NCI-H2228 [21]) was 0% and the pIC50 (KARPAS-299) was 7.82. It also gave an inhibition in vivo at 50 mg/kg (NCI-H2228 [22]) of 70.5%, a pIC50 (A549) of 5.88 and an IC50 at 72 h [23] of over 20000 nM. The half-life at 10 µM [24] was 16.3 min, the Activity (NCI-H2228 [25]) was “Dde” and the Activity (NCI-H2228 [26]) was “Dde”. The pIC50 (NCI-H3122) was 7.92, the Activity (NCI-H2228 [27]) was 73.23% and the pIC50 [28] was 9.15. For the same compound, the Activity (NCI-H2228 [29]) was 31.29%, the Activity (NCI-H2228 [30]) was 61.31% and the Activity (NCI-H2228 [31]) was 7.3%.

Reference: ChEMBL document CHEMBL5108011, “Design, synthesis and antitumor evaluation of ATP dual-mimic 2,4-diarylaminopyrimidine and aminoindazole conjugates as potent anaplastic lymphoma kinase inhibitors” (Eur J Med Chem, 2022)
